Structures can show the parent of a compound that is named as a salt.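 1) Cells in 96-well plates. 2) Compound, 48 h, 5 concentrations. 3) Linear interpolation between surrounding doses. 4) Unreached endpoint = highest concentration. At the GI50, growth is halved.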 Activity calls are given as the source filed them. No stated cut-off is given here; in the data, active = GI50 up to about 1.1 µM and inactive = higher. Non-standard residues stand in square brackets, D forms with d. Residues, ends and D or L forms follow the SMILES beside them. ξ: configuration not given here. *: point of attachment. X18 = COC1=CC(=O)N(C(=O)C(O*)C(C)C)C1Cc1ccccc1; ξNMe2Val = CC(C)C(C(=O)*)N(C)C; NMeV = CN[CH](C(=O)O)C(C)C
How the values were obtained:
Experiment in all cases: DTP human tumour cell line panel, 48 h
DLD-1 = test system: DLD-1
DMS-114 = test system: DMS-114
HOP-18 = test system: HOP-18
KM-20L2 = test system: KM-20L2
M19-MEL = test system: M19-MEL
RXF 631 = test system: RXF 631
SNB-78 = test system: SNB-78
BT-549 = test system: BT-549
MDA-MB-435 = test system: MDA-MB-435

| SMILES | GI50 (DLD-1) | GI50 (DMS-114) | GI50 (HOP-18) | GI50 (KM-20L2) | GI50 (M19-MEL) | GI50 (RXF 631) | GI50 (SNB-78) | GI50 (BT-549) | GI50 (MDA-MB-435) |
| --- | --- | --- | --- | --- | --- | --- | --- | --- | --- |
| O=C1/C(=C/c2ccccc2)CCCC/C1=C\c1ccccc1 | 34.2 µM (inactive) | 42.5 µM (inactive) | > 100 µM (inactive) | 31 µM (inactive) | 48.5 µM (inactive) | 52.8 µM (inactive) | > 100 µM (inactive) | – | – |
| COC1=CC(=O)N(C(=O)C(OC(=O)C2CCCN2C(=O)C2CCCN2C(=O)C(C(C)C)N(C)C(=O)C(NC(=O)C(C(C)C)N(C)C)C(C)C)C(C)C)C1Cc1ccccc1 (centres undefined) (ξNMe2Val-V[NMeV]PP-X18; configuration not given here) | 0.00108 µM (active) | 0.000476 µM (active) | < 0.01 µM (active) | 0.00135 µM (active) | 0.00319 µM (active) | 0.00459 µM (active) | 0.00244 µM (active) | 0.00046 µM (active) | 5.13e-05 µM (active) |
| Cc1ccc(N(C(=O)CC(=O)NN)C(=O)c2ccccc2Cl)cc1 | > 100 µM (inactive) | > 100 µM (inactive) | > 100 µM (inactive) | > 100 µM (inactive) | > 100 µM (inactive) | > 100 µM (inactive) | > 100 µM (inactive) | – | – |
| CCOC(=O)C(=CNC(Cc1c[nH]c2ccccc12)C(=O)OC)C(=O)OCC (centres undefined) | > 100 µM (inactive) | > 100 µM (inactive) | 92 µM (inactive) | > 100 µM (inactive) | > 100 µM (inactive) | > 100 µM (inactive) | > 100 µM (inactive) | – | – |
| COC(=O)C(Cc1nc2ccc(Cl)cc2nc1O)C(=O)C(=O)Nc1ccccc1[N+](=O)[O-] (centres undefined) | > 100 µM (inactive) | > 100 µM (inactive) | 93.8 µM (inactive) | > 100 µM (inactive) | > 100 µM (inactive) | > 100 µM (inactive) | > 100 µM (inactive) | – | – |
| COC(=O)CC(c1ccccc1)C1(c2ccccc2)SCCS1 (centres undefined) | > 290 µM (inactive) | 121 µM (inactive) | > 290 µM (inactive) | > 290 µM (inactive) | > 290 µM (inactive) | 161 µM (inactive) | – | – | – |
| CC(=O)N(O)CCCCCNC(=O)CCC(=O)N(O)CCCCCNC(=O)CCC(=O)N(O)CCCCCN [DEFEROXAMINE HYDROCHLORIDE] | 45.3 µM (inactive) | 43.4 µM (inactive) | 12.7 µM (inactive) | 17.8 µM (inactive) | 43.8 µM (inactive) | 26.9 µM (inactive) | > 100 µM (inactive) | 57.5 µM (inactive) | > 78.5 µM (inactive) |
| Cc1ccccc1NC(=O)C(=O)CC(=O)c1sc(-n2nc(-c3ccccc3)cc2-c2ccccc2)nc1C | > 100 µM (inactive) | > 100 µM (inactive) | – | > 100 µM (inactive) | > 100 µM (inactive) | > 100 µM (inactive) | > 100 µM (inactive) | – | – |
| Cc1ccccc1C(C#N)C(=O)C(=O)Nc1cccc(Cl)c1 (centres undefined) | > 100 µM (inactive) | 54.6 µM (inactive) | – | > 100 µM (inactive) | 26.4 µM (inactive) | > 100 µM (inactive) | > 100 µM (inactive) | – | – |
| OCC(O)COc1c(Cl)cc(Cl)cc1Cl (centres undefined) | > 59.7 µM (inactive) | > 100 µM (inactive) | > 100 µM (inactive) | > 100 µM (inactive) | > 100 µM (inactive) | > 100 µM (inactive) | > 100 µM (inactive) | – | – |
| O=C(N/C(=C\c1cccc([N+](=O)[O-])c1)c1nc2c(O)nc(S)nc2[nH]1)c1ccccc1 | > 100 µM (inactive) | 88.9 µM (inactive) | > 100 µM (inactive) | > 100 µM (inactive) | > 100 µM (inactive) | > 100 µM (inactive) | > 100 µM (inactive) | – | – |
| COC(=O)C(CC(=O)c1c[nH]c2ccccc12)c1c[nH]c2ccccc12 (centres undefined) | 30.8 µM (inactive) | 15.8 µM (inactive) | – | 17.9 µM (inactive) | > 10 µM (inactive) | 15.8 µM (inactive) | 22.2 µM (inactive) | – | – |
| C#CCOc1c(C(=O)OCC)c(=O)n(C)c2ccccc12 | > 100 µM (inactive) | > 100 µM (inactive) | > 100 µM (inactive) | > 100 µM (inactive) | > 100 µM (inactive) | > 100 µM (inactive) | > 100 µM (inactive) | – | – |
| CCC(O)(c1ccc(OC)cc1)C(c1ccc(OCc2ccccc2)cc1)c1ccc(OCc2ccccc2)cc1 (centres undefined) | > 100 µM (inactive) | > 100 µM (inactive) | – | > 100 µM (inactive) | > 100 µM (inactive) | > 100 µM (inactive) | > 100 µM (inactive) | – | – |
| CC1=Nc2c(ccc3c2C(=O)c2ccccc2C3=O)NC(c2ccncc2)C1 (centres undefined) | 29.4 µM (inactive) | 7.74 µM (inactive) | > 10 µM (inactive) | > 10 µM (inactive) | > 10 µM (inactive) | 36.6 µM (inactive) | > 10 µM (inactive) | – | – |

Source: ChEMBL document CHEMBL1201862, “PubChem BioAssay data set” (2004)
